Laboratory results from patent US9241991B2, “Agents, compositions, and methods for treating pruritus and related skin conditions” (The Brigham and Women's Hospital, Inc., priority 2010, dated 2016).

Legend:
[1] = target: T1, TLR7 (Mus musculus, UniProt P58681); experiment: Patch clamp recording of inward currents and action potentials in small DRG neurons, TLR7 ligands; format: cell-based, mice
T1 construct: We found functional TLR7 receptors in small-size DRG neurons; from tissue; host or cells: small DRG neurons of mice; nape and cheek skin of live mice (C57BL/6J background, CD1)
T1 sequence (P58681 27-1050): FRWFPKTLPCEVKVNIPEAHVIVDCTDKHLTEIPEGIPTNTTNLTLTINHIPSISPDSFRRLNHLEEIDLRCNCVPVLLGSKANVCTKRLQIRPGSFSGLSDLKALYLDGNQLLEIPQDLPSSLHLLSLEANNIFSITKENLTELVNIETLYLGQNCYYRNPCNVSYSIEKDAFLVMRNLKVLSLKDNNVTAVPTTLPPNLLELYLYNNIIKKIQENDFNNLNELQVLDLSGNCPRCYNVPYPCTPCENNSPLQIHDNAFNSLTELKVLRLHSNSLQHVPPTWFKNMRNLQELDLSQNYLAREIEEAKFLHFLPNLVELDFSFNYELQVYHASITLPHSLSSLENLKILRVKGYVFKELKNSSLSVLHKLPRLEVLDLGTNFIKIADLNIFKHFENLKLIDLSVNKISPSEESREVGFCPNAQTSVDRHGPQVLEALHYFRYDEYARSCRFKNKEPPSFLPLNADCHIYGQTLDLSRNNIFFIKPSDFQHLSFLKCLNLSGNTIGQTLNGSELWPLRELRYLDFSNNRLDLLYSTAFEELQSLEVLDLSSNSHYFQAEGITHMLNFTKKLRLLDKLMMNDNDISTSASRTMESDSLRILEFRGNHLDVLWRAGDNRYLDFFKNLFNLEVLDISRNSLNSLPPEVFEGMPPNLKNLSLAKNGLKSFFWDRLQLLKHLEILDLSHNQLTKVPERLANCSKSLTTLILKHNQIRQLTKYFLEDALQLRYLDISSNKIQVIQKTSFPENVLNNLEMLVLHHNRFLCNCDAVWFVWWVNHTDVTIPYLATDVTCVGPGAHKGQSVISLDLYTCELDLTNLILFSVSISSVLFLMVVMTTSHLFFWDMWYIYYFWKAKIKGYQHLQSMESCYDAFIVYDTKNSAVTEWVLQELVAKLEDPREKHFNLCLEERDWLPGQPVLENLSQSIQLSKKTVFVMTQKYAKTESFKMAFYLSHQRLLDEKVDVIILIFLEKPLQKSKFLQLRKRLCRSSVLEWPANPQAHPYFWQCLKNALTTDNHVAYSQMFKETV

[2] = target: T1, TLR7; experiment: Cheek model of itch versus pain, TLR7 ligands; format: in vivo, mice; details: 20 μg intradermal into the cheek
Experimental: To distinguish itch and pain responses simultaneously, we used the cheek model by injection of chemical into cheek of mice (8). After brief anesthesia with isoflurane, we shaved mice on cheeks (approx. 5×8 mm area) two days before experiments. On the day of experiment, we injected 10 μl of reagent (50 μg compound 48/80 or 100 μg chloroquine) into the cheek and counted the number of wipes and the number of scratches for 30 min. We only counted those unilateral wipes with the forelimb that were not part of grooming behavior. One scratch was defined as a lifting of the hind paw toward the injection site on the cheek and then returning the paw to the floor or to the mouth.
To further investigate a unique role of TLR7 in itch versus pain, we used a recently developed “cheek model” of itch (Shimada, S. G. & LaMotte, R. H. Pain 139, 681-687 (2008)).

[3] = target: T1, TLR7; details: mice; cited from earlier work
[4] = tested on: TLR7; experiment: Scratches after intradermal injection in the nape of the neck, WT and Tlr7-/- mice; format: in vivo
From the text: We next evaluated whether TLR7 plays a role in itch sensation. We counted the number of scratches (bouts) by a hindpaw of mouse following intradermal injection of pruritogenic agents in the nape of the neck.

[5] = tested on: mice; experiment: Imiquimod-induced scratching in Trpv1-/- and mast cell-deficient SASH mice; format: in vivo
[6] = target: T2, TLR7 (Homo sapiens, UniProt Q9NYK1); details: cited from earlier work
T2 construct: host or cells: human skin, clinical use (Madan et al. 2010)
T2 sequence (Q9NYK1 27-1049): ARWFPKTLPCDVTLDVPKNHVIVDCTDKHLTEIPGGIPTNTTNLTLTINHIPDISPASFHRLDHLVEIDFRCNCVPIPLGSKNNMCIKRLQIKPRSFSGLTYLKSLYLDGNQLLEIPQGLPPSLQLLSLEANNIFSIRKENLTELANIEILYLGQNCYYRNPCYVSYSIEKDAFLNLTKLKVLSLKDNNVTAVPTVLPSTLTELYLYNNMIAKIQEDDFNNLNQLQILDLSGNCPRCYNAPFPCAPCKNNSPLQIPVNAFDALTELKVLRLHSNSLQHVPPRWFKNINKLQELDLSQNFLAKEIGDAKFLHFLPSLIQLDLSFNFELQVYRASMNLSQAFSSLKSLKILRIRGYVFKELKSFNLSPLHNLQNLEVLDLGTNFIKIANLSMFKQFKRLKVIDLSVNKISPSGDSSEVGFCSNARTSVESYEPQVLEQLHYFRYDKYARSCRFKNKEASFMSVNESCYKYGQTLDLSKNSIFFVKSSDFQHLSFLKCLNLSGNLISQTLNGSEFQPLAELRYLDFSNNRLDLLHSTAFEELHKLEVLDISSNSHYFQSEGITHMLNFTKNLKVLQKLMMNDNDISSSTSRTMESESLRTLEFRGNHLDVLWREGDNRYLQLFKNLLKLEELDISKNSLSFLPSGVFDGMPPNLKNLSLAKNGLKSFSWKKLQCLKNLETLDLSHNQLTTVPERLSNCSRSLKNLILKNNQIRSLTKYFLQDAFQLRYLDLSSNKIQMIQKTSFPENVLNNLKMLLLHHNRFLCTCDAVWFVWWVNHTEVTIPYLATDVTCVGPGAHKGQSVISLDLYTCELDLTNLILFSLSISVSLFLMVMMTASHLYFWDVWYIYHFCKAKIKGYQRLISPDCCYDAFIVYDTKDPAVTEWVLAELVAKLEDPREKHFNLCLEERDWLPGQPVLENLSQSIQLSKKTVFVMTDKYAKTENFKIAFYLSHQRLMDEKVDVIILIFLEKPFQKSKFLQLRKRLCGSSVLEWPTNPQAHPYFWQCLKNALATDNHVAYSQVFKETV

[7] = tested on: TLR7 mRNA; experiment: TLR7 mRNA levels in cervical DRGs by quantitative PCR after siRNA; format: in vivo, mice; details: siRNA 4 μg intrathecal, P<0.05
Experimental: (§1) 4 μg siRNA targeting TLR7 ([…] (SEQ ID NO:8)) (synthesized by Dharmacon, On-target Plus) or a non-targeting control siRNA ([…] (SEQ ID NO:9)) was administered intrathecallly to wild type (CD1) mice at 24 and 48 hours before the mice received an injection of IMQ ([…]). siRNA was dissolved in RNase-free water at 1 μg/μl as stock solution and mixed with polyethyleneimine (PEI, Fermentas Inc. Hanover, USA, 0.18 μl of PEI solution for 1 μg of siRNA), 10 minutes before injection, to increase cell membrane penetration and reduce the degradation. PEI was dissolved in 5% glucose. After behavioral testing, DRG tissues were collected for quantitative PCR analysis.

[8] = tested on: TLR7; experiment: IMQ-induced scratches after intrathecal TLR7 siRNA; format: in vivo; details: siRNA 4 μg intrathecal with PEI 48 and 24 h before IMQ (20 mg, 20 μg elsewhere in the source), CD1 mice, vs NT siRNA; P<0.05
Experimental: as §1

Compound	neurons from WT mice that respond ([1]; 500 μM, small DRG neurons)	action potentials in DRG neurons ([1]; WT but not Tlr7-/- mice, 500 μM)	response of neurons from Tlr7-/- mice ([1]; all 10 neurons)	inward currents in DRG neurons ([1]; capsaicin-responsive DRG neurons of WT but not Tlr7-/- mice, imiquimod 20-500 μM)	itch-like scratching in cheek model [2]	pain-indicative wiping in cheek model [2]	skin inflammation [3]	dose response curve of scratching ([4]; intradermal injection, nape)	scratches in Tlr7-/- mice versus WT ([4]; intradermal, 100 μg)	reduction in imiquimod-induced scratching in mast cell-deficient SASH mice ([5]; SASH mice vs WT control)	imiquimod-induced scratching in Trpv1-/- mice ([5]; Trpv1-/- vs WT control)	pruritus on topical application [6]	TLR7 mRNA levels in cervical DRGs [7]	IMQ induced scratches [8]
CC(C)Cn1cnc2c(N)nc3ccccc3c21 [imiquimod]	Eight out of 17	induced action potentials	fail to respond	dose-dependent inward currents	elicited itch-like scratching	not pain-indicative wiping behavior	induces psoriasis-like skin inflammation	inverted-U-shaped dose response curve	reduced	28%	remained unaltered	frequently elicits pruritus	–	–
TLR7 siRNA: siRNA targeting TLR7 (CCUUACACUAUUUCCGAUA, SEQ ID NO:8), synthesized by Dharmacon, On-target Plus (chemistry not given here)	–	–	–	–	–	–	–	–	–	–	–	–	reduced levels	significantly reduced
